Results: patent US9012651B2, “TRPV3 modulators” (AbbVie Inc., priority 2011, dated 2015)

Tests used:
TRPV3 = TRPV3 activation; relatively weak and nonspecific across TRPs; cited from earlier work
human TRPV3 receptors = human TRPV3 receptors (Homo sapiens (Human), UniProt Q8NET8); assay: Calcium flux assay (FLIPR TETRA), inhibition of the 2-APB response; type: cell-based; settings: recombinant HEK293 cells stably expressing TRPV3, Calcium-4 dye, 2-APB at its EC80
Procedure, shortened: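 HEK293 cells stably expressing human and mouse TRPV3, plated the day before and dye-loaded 90-120 min in the dark, read on FLIPR Tetra. Peak fluorescence increase over baseline was expressed as percent of the maximal 2-APB response without compound.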

[1] = system: mouse Chronic Constriction Injury Model of neuropathic pain; assay: Chronic Constriction Injury (CCI) model of neuropathic pain, mechanical allodynia (von Frey); type: in vivo; settings: CD1 mice; acute oral administration, 100 mg/kg oral dose; 1 hour pretreatment P.O.; von Frey monofilaments
Source text: Chronic Constriction Injury (CCI) Model of Neuropathic Pain:
CD1 mice (Charles River) were used for these studies. Prior to testing (2-4 weeks) animals underwent a surgical procedure consisting of approximately 3 loose ligatures around the sciatic nerve. Briefly, following sterilization procedures, under isofluorane anesthetic, a 1.5 cm incision was made dorsal to the pelvis. The biceps femoris and gluteous superficialis (right side) were separated and the sciatic nerve exposed, isolated, and 2-4 loose ligatures (5-0 chromic gut) with <1 mm spacing were placed around it. Following hemostasis, the wound was sutured (layer of muscle closed with 5-0 nylon suture, and the wound closed with surgical staples) and coated with iodine. The mice were allowed to recover on a warming plate and are returned to their home cages (soft bedding) when able to walk on their own. Two to four weeks after the surgery, TRPV3 antagonsists were tested in these mice following P.O. (1 hour pretreatment) or I.P. (30 minutes pretreatment) dosing, and mechanical allodynia evaluated where the threshold to response was assessed using calibrated von Frey monofilaments. The von Frey monofilaments were applied to the hind paw at increasing forces until the animal responded by lifting its paw. […]

Chain of human TRPV3 receptors (Q8NET8 whole entry): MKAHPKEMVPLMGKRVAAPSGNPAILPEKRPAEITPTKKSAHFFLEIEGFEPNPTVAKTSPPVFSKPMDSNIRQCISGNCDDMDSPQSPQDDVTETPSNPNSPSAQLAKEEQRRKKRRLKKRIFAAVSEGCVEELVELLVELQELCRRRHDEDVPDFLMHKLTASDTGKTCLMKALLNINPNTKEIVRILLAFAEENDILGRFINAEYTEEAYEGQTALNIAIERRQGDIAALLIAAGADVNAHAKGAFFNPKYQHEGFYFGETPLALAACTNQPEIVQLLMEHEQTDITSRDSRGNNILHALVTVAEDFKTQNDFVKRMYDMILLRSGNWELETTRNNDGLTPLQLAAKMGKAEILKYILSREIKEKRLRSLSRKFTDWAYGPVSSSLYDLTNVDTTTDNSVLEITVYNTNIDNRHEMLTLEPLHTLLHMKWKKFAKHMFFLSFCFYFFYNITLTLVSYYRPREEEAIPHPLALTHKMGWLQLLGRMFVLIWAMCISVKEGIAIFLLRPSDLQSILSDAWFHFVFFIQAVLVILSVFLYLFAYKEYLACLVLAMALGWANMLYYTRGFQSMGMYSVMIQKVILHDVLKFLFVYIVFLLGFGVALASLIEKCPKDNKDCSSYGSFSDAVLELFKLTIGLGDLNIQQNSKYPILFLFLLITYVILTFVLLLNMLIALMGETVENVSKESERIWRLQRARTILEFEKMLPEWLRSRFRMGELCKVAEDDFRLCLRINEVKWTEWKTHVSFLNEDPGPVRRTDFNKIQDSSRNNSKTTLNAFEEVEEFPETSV

| IC50 (human TRPV3 receptors) | Structure (SMILES) | EC50 (TRPV3) | effects vs. vehicle in the mouse Chronic Constriction Injury Model of neuropathic pain [1] |
| --- | --- | --- | --- |
|  | c1ccc(B(OB(c2ccccc2)c2ccccc2)c2ccccc2)cc1 [DPBA, diphenylboronic anhydride] | ~40000 nM |  |
|  | NCCOB(c1ccccc1)c1ccccc1 [Example 2-APB, 2-aminoethoxydiphenylborate] | ~40000 nM |  |
| 360 nM | CC(C)[C@H](CO)NCc1nc(C2CCCCC2)ccc1F [Example 129] |  | statistically significant effects vs. vehicle |
| 950 nM | CC(C)[C@H](CO)NCc1nc(-c2ccc(C(F)(F)F)nc2)ccc1F [Example 28, (2R)-2-({[5-fluoro-6′-(trifluoromethyl)-2,3′-bipyridin-6-yl]methyl}amino)-3-methylbutan-1-ol] |  | statistically significant effects vs. vehicle |
| 460 nM | CCC[C@H](CO)NCc1nc(-c2ccc(C(F)(F)F)cc2)ccc1F [Example 83, (2R)-2-[({3-fluoro-6-[4-(trifluoromethyl)phenyl]pyridin-2-yl}methyl)amino]pentan-1-ol] |  |  |
| 1080 nM | CC(C)[C@H](CO)NCc1nc(-c2cccc(S(=O)(=O)N3CCCC3)c2)ccc1F [Example 60, (2R)-2-[({3-fluoro-6-[3-(pyrrolidin-1-ylsulfonyl)phenyl]pyridin-2-yl}methyl)amino]-3-methylbutan-1-ol] |  |  |
| > 20000 nM | O[C@@H]1CCCC[C@@H]1CNCc1ccnc(-c2ccc(C(F)(F)F)cc2)n1 [Example 166, (1R,2R)-2-{[({2-[4-(trifluoromethyl)phenyl]pyrimidin-4-yl}methyl)amino]methyl}cyclohexanol] |  |  |
| 160 nM | CC(C)[C@H](CO)NCc1nc(N2Cc3ccccc3C2)ccc1F [Example 71, (2R)-2-({[6-[1,3-dihydro-2H-isoindol-2-yl)-3-fluoropyridin-2-yl]methyl}amino)-3-methylbutan-1-ol] |  |  |
| 650 nM | CCCN(CCC)C(=O)c1ccc(-c2ccc(F)c(CN[C@@H](CO)C(C)C)n2)cc1 [Example 277, 4-[5-fluoro-6-({[(2R)-1-hydroxy-3-methylbutan-2-yl]amino}methyl)pyridin-2-yl]-N,N-dipropylbenzamide] |  |  |
| 770 nM | CCC1CCC(c2ccc(F)c(CN[C@@H](CO)C(C)C)n2)CC1 (stereo partly drawn) [Example 201, (2R)-2-({[6-(4-ethylcyclohexyl)-3-fluoropyridin-2-yl]methyl}amino)-3-methylbutan-1-ol] |  |  |
| 3020 nM | OC[C@H](NCc1nc(-c2ccc(C(F)(F)F)nc2)ccc1F)C1CC1 [Example 75, (2R)-2-cyclopropyl-2-({[5-fluoro-6′-(trifluoromethyl)-2,3′-bipyridin-6-yl]methyl}amino)ethanol] |  |  |
| > 20000 nM | OCC1(CNCc2ccnc(-c3ccc(C(F)(F)F)cc3)n2)CCCC1 [Example 158, (1-{[({2-[4-(trifluoromethyl)phenyl]pyrimidin-4-yl}methyl)amino]methyl}cyclopentyl)methanol] |  |  |
| 980 nM | CC(C)[C@H](CO)NCc1nc(C#CCC2CCCCC2)ccc1F [Example 236, (2R)-2-({[6-(3-cyclohexylprop-1-yn-1-yl)-3-fluoropyridin-2-yl]methyl}amino)-3-methylbutan-1-ol] |  |  |
| 2650 nM | CC(C)[C@H](CO)NCc1nc(-c2cnc(C(F)(F)F)nc2)ccc1F [Example 113, (2R)-2-[({3-fluoro-6-[2-(trifluoromethyl)pyrimidin-5-yl]pyridin-2-yl}methyl)amino]-3-methylbutan-1-ol] |  |  |
| > 20000 nM | OCC1(CNCc2ccnc(-c3ccc(C(F)(F)F)cc3)n2)CCC1 [Example 157, (1-{[({2-[4-(trifluoromethyl)phenyl]pyrimidin-4-yl}methyl)amino]methyl}cyclobutyl)methanol] |  |  |
| 4060 nM | CC(C)[C@H](CO)NCc1cccc(OC(C)(C)C)n1 [Example 26] |  |  |

| IC50 (human TRPV3 receptors) | Structure (SMILES) | EC50 (TRPV3) | effects vs. vehicle in the mouse Chronic Constriction Injury Model of neuropathic pain [1] |
| --- | --- | --- | --- |
| > 20000 nM | CCC(O)CNCc1ccnc(-c2ccc(C(F)(F)F)cc2)n1 (stereo not shown) [Example 181, 1-[({2-[4-(trifluoromethyl)phenyl]pyrimidin-4-yl}methyl)amino]butan-2-ol] |  |  |
| 3820 nM | C[C@@H](O)[C@@H](CO)NCc1ccnc(-c2ccc(C(F)(F)F)cc2)n1 [Example 150, (2R,3R)-2-[({2-[4-(trifluoromethyl)phenyl]pyrimidin-4-yl}methyl)amino]butane-1,3-diol] |  |  |
| 6430 nM | CC(C)(C)[C@H](CO)NCc1ccnc(-c2ccc(C(F)(F)F)cc2)n1 [Example 147, (2R)-3,3-dimethyl-2-[({2-[4-(trifluoromethyl)phenyl]pyrimidin-4-yl}methyl)amino]butan-1-ol] |  |  |
| 1420 nM | CC(C)[C@H](CO)NCc1nc(-c2cccc(C(=O)N(C)C3CCCCC3)c2)ccc1F [Example 52, N-cyclohexyl-3-[5-fluoro-6-({[(2R)-1-hydroxy-3-methylbutan-2-yl]amino}methyl)pyridin-2-yl]-N-methylbenzamide] |  |  |
| 380 nM | CC(C)[C@H](CO)NCc1nc(/C=C/c2cccc(F)c2)ccc1F [Example 233, (2R)-2-[({3-fluoro-6-[(E)-2-(3-fluorophenyl)ethenyl]pyridin-2-yl}methyl)amino]-3-methylbutan-1-ol] |  |  |
| 9320 nM | OCC1(NCc2ccnc(-c3ccc(C(F)(F)F)cc3)n2)CCCC1 [Example 133, {1-[({2-[4-(trifluoromethyl)phenyl]pyrimidin-4-yl}methyl)amino]cyclopentyl}methanol] |  |  |
| 550 nM | CC(C)[C@H](CO)NCc1cccc(-c2ccc(C(F)(F)F)cc2C(F)(F)F)n1 [Example 270, (2R)-2-[({6-[2,4-bis(trifluoromethyl)phenyl]pyridin-2-yl}methyl)amino]-3-methylbutan-1-ol] |  |  |
| 740 nM | CC(C)[C@H](CO)NCc1nc(C2=CCCCC2)ccc1F [Example 126, (2R)-2-({[6-(cyclohex-1-en-1-yl)-3-fluoropyridin-2-yl]methyl}amino)-3-methylbutan-1-ol] |  |  |
| 290 nM | OCC1(NCc2nc(-c3ccc(C(F)(F)F)cc3)ccc2F)CCCC1 [Example 80, {1-[({3-fluoro-6-[4-(trifluoromethyl)phenyl]pyridin-2-yl}methyl)amino]cyclopentyl}methanol] |  |  |
| 1860 nM | CC(C)[C@H](CO)NCc1nc(C#Cc2ccc(C(C)(C)C)cc2)ccc1F [Example 241, (2R)-2-[({6-[(4-tert-butylphenyl)ethynyl]-3-fluoropyridin-2-yl}methyl)amino]-3-methylbutan-1-ol] |  |  |
| 1330 nM | CC1CCN(C(=O)c2ccc(-c3ccc(F)c(CN[C@@H](CO)C(C)C)n3)cc2)CC1 [Example 275, {4-[5-fluoro-6-({[(2R)-1-hydroxy-3-methylbutan-2-yl]amino}methyl)pyridin-2-yl]phenyl}(4-methylpiperidin-1-yl)methanone] |  |  |
| 520 nM | CC(C)[C@H](CO)NCc1cccc(C#Cc2ccc(Cl)cc2)n1 [Example 286, (2R)-2-[({6-[(4-chlorophenyl)ethynyl]pyridin-2-yl}methyl)amino]-3-methylbutan-1-ol] |  |  |
| 520 nM | CC(C)[C@H](CO)NCc1cccc(C#Cc2ccc(F)cc2F)n1 [Example 284, (2R)-2-[({6-[(2,4-difluorophenyl)ethynyl]pyridin-2-yl}methyl)amino]-3-methylbutan-1-ol] |  |  |
| > 20000 nM | CC[C@H](CO)NCc1ccnc(-c2ccc(C(F)(F)F)nc2)n1 [Example 186, (2R)-2-[({2-[6-(trifluoromethyl)pyridin-3-yl]pyrimidin-4-yl}methyl)amino]butan-1-ol] |  |  |
| > 20000 nM | OC[C@H]1CCCC[C@@H]1NCc1ccnc(-c2ccc(C(F)(F)F)cc2)n1 [Example 167, {(1S,2S)-2-[({2-[4-(trifluoromethyl)phenyl]pyrimidin-4-yl}methyl)amino]cyclohexyl}methanol] |  |  |

| Structure (SMILES) | IC50 (human TRPV3 receptors) | EC50 (TRPV3) | effects vs. vehicle in the mouse Chronic Constriction Injury Model of neuropathic pain [1] |
| --- | --- | --- | --- |
| CC(C)(CO)NCc1cccc(-c2cccc([Si](C)(C)C)c2)n1 [Example 237, 2-methyl-2-[({6-[3-(trimethylsilyl)phenyl]pyridin-2-yl}methyl)amino]propan-1-ol] | 5750 nM |  |  |
